Key:
[1] = Acute tolerability after oral administration; type: in vivo, C57BL/6N mice
From the text: Methods: C57BL/6N mice were generated and maintained (including breeding and housing) at the animal facilities of the Helmholtz Centre for Infection Research (HZI) under enhanced specific pathogen-free (SPF) conditions (Stehr et al., 2009). Animals used in the experiments were gender and age matched. Female and male mice with an age of 8-12 weeks were used. Sterilized food and water ad libitum were provided. Mice were kept under a strict 12-hour light cycle (lights on at 7:00 am and off at […]) and housed in groups of two to six mice per cage. All mice were euthanized by asphyxiation with CO2 and cervical dislocation. All animal experiments were performed in agreement with the local government of Lower Saxony, Germany (approved permission No. 33.19-42502-04-18/2499).
Age- and gender-matched mice received two doses of peptides (0, 125 μg or 250 μg) solved in 100 μl PBS orally per day. Bodyweight and appearance were recorded. The following day, mice were sacrificed and stomach, kidney, spleen, liver, small intestine, cecum and colon were removed for histological scoring. Around 1 ml of blood was taken from the heart to measure inflammatory markers including creatinine in the kidney and the enzyme levels of glutamate-oxalacetate-transaminase (GOT) in the liver.

[2] = test system: S. Typhimurium; test: Acute gastrointestinal infection caused by S. Typhimurium; type: in vivo, mice
Protocol: Methods: Analysis of bacterial loads in feces. Fresh fecal samples were collected and weighted. Samples were homogenized in 1 ml LB media by bead-beating with 1 mm zirconia/silica beads twice for 25 s using a Mini-Beadbeater-96 (BioSpec). To determine CFUs, dilutions of homogenized samples were plated on LB plates with 50 μg/ml kanamycin. Analysis of bacterial loads in intestinal content and systemic organs. All mice were euthanized by asphyxiation with CO2 at indicated time points. Intestinal tissues (small intestine, cecum, colon) were removed aseptically. To collect intestinal content, organs were flushed with PBS. Organs were opened longitudinally, cleaned thoroughly with PBS and weighted. Organs and content were homogenized in PBS using a Polytron homogenizer ([…]). Dilutions of homogenized samples were plated on LB plates containing 50 μg/ml kanamycin to determine CFUs. For S. Typhimurium infection experiments, age- and sex-matched mice between 10 and 14 weeks of age were used. Both-female and male mice were used in experiments. Water and food were withdrawn for 4 hours before mice were treated with 20 mg/mouse of streptomycin by oral gavage. Afterwards, mice were supplied with water and food ad libitum. 20 hours after streptomycin treatment, water and food were withdrawn again, 4 hours before the mice were orally infected with 10^5 CFU of S. Typhimurium in 200 μl PBS. […]

[3] = test system: red blood cell; test: Hemolysis assay; type: cell-based
Protocol: (§1) Methods: Cellular toxicity was determined by Lactate dehydrogenase concentration and WST-1 cell proliferation assay as well as hemolysis assay.

[4] = Cellular toxicity, lactate dehydrogenase (LDH) assay; type: cell-based
Protocol: as §1

[5] = test system: C. albicans; test: Broth microdilution assay, antifungal activity; type: cell-based
Protocol: (§2) Methods: Broth microdilution assay. Candida was cultured in TSB over night at 37° C., centrifuged (1500 rpm, 10 min, RT) and washed twice with 10 mM sodium phosphate buffer containing 1% (w/v) TSB. Candida cells were counted and approximately 5×10^5 CFU/ml fungi were incubated with serial peptide concentrations (1.17-150 μM) in a final volume of 100 μl in 10 mM sodium phosphate buffer containing 1% (w/v) TSB for 2 hours at 37° C. After incubation, 100 μl of 6% TSB (w/v) was added and absorbance was measured at 600 nm (Tecan, Switzerland) and monitored for 18 hours. Afterwards, 100 μl per well was plated on YPD agar to determine the number of viable bacteria microbiologically.

[6] = test system: C. tropicalis; test: Broth microdilution assay, antifungal activity; type: cell-based
Protocol: as §2

[7] = test system: ypuA promoter; test: ypuA promoter luciferase reporter gene assay; type: cell-based, Bacillus subitilis 1S34
Protocol: A specific bacterial reporter strain with the genetic background of Bacillus subitilis 1S34, carrying the promoter of the ypuA gene, fused to the firefly luciferase reporter gene, was used to identify cell envelope-related damage caused by treatment with antimicrobial compounds. Bacteria were cultured to an OD600 of 0.9 in LB broth with 5 μg/ml erythromycin at 37° C. and diluted to an OD600 of 0.02. Serial peptide dilutions (0.15-150 μM) were prepared in a microtiter plate and incubated with the adjusted bacterial suspension at 37° C. for 1 hour. Subsequently, citrate buffer (0.1 M, pH 5) containing 2 mM luciferin (Iris Biotech, Germany) was added and luminescence was measured using a microplate reader (Tecan, Switzerland).

[8] = test system: bacteria from the ESKAPE panel; type: cell-based; settings: broth microdilution, 1.17-150 μM peptide, 2 hours
Protocol: Methods: Broth microdilution assay. Log-phase bacteria were collected by centrifugation (2500 rpm, 10 min, 4° C.), washed twice with 10 mM sodium phosphate buffer containing 1% (w/v) TSB and the optical density at 600 nm was adjusted to 0.1. Approximately 5×10^5 CFU/ml bacteria were incubated with serial peptide concentrations (1.17-150 μM) in a final volume of 100 μl in 10 mM sodium phosphate buffer containing 1% (w/v) TSB for 2 hours at 37° C. After incubation, 100 μl of 6% TSB (w/v) was added and absorbance was measured at 600 nm (Tecan, Switzerland) and monitored for 18 hours. Afterwards, 100 μl per well was plated on LB agar to determine the number of viable bacteria microbiologically. Bactericidal activity was expressed as the LC99.9, the lowest concentration that killed ≥99.9% of bacteria.

## Pam2-Glc-Suc-RGKAKCCK [Pam-1]
[1]; mouse, in vivo, po
  histological examination of gastrointestinal, liver and kidney tissues: no alterations
  serum level of creatinine: no significant differences between the groups
  serum level of glutamic oxaloacetic transaminase (GOT): no significant differences between the groups
[1]; oral, mice, 24 hours after application, 125 or 250 μg doses
  acute toxicity (histological analysis and serum markers): did not reveal any acute toxicity
[2]; 250 μg orally 6 and 22 hours post infection, vs PBS, Mann-Whitney test
  CFU of S. Typhimurium in cecum content: significantly reduced
[2]; mouse, in vivo
  CFU's in gut content and gut tissue, acute model (summary): significant CFU reduction in the acute model and this only for gut content
[3]
  red blood cell disruption (hemolysis): minimal red blood cell disruption
[4]
  LDH activity (cytotoxicity): no LDH activity
[5]
  antifungal activity against C. albicans: no antifungal activity
[6]
  antifungal activity against C. tropicalis: no antifungal activity
[7]
  cell envelope damage (ypuA reporter): little cell envelope damage
[8]
  bactericidal activity: no or low bactericidal activity
